Target: Concanavalin-A (Canavalia ensiformis, UniProt P02866)
Experiment: Inhibition of Canavalia ensiformis concanavalin A binding to yeast mannan by ELLA

Chain of Concanavalin-A (P02866 whole entry): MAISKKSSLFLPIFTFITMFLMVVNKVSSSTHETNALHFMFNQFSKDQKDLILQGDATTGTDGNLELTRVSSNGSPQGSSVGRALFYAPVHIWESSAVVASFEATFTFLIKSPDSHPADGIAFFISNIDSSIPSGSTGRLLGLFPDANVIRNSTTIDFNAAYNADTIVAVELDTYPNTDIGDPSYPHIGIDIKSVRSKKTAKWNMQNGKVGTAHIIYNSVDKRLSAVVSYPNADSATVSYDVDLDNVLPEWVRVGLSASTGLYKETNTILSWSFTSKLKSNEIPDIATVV

Structure (SMILES) | IC50
NS(=O)(=O)c1ccc(/N=N/c2cccnc2O)cc1 | 234 µM
O=C(O)C1CCCCC1c1c2ccc(=O)c(O)c-2oc2c(O)c(O)ccc12 (configuration not stated) | 29 µM
NS(=O)(=O)c1ccc(/N=N/c2nc3nc(O)nc(O)c3[nH]2)cc1 | 615 µM
Oc1cc(O)c2c(c1)OC(c1ccc(O)c(O)c1)C(O)C2c1c(O)cc(O)c2c1CC(c1ccc(O)c(O)c1)C(O)C2 (configuration not stated) | 479 µM
CO[C@H]1O[C@H](CO)[C@@H](O)[C@H](O)[C@@H]1O | 350 µM
NNS(=O)(=O)c1cc(C(=O)O)cc(C(=O)O)c1 | 19 µM

Target: Concanavalin-A (Canavalia ensiformis) (UniProt P02866)
Sequence (P02866 whole entry): as above
Experiment: Inhibition of Canavalia ensiformis concanavalin A binding to yeast mannan at 11 mM by ELLA

inhibition | Structure (SMILES)
49% | NS(=O)(=O)c1ccc(/N=N/c2cnc(O)c(O)c2)cc1
